Source: patent US7615361B2, “Toxicity screening methods” (Ceetox, Inc., priority 2006, dated 2009)
No end group written: not given here.

Key:
rat cardiomyocytes [1] = experiment: MTT reduction; assay type: cell-based
Description: (§1) One test compound (Compound A) was received as dry powder and evaluated for potential cytotoxicity in a battery of in vitro assays. The compound was tested using both rat cardiomyocytes (CM) from rat neonates and a rat hepatoma (H4IIE) cell line. […] The cell supernatant or the cells themselves were harvested for biochemical analysis. General cytotoxicity was evaluated by monitoring membrane integrity, mitochondrial function, cell proliferation, oxidative stress, and apoptosis. In addition, interaction with P-glycoprotein (PgP) on H4IIE cells and solubility of the test compound were also assessed. The means of each exposure group (n=3-7) were calculated for each assay performed.
(§2) Tetrazolium Dye Reduction: 3-[4,5-dimethylthiazol-2-yl]

[2] = system: H4IIE tumor cells, NRK cells, rat primary hepatocytes; experiment: Anti-tumor screen in three rat cell types; assay type: cell-based
Description: In the Anti-tumor screen of the present invention, at least three different cell types are utilized: (1) tumor derived cells, (2) proliferating cells from normal tissue, and (3) non-proliferating cells from normal tissue. The evaluation of anti-tumor agents in multiple cell types provides information on mechanism-based toxicity versus efficacy.
The anti-tumor agent can be evaluated in a toxicity screen of key biochemical functions (as described in detail herein above), with emphasis placed on cell proliferation assays as well as biochemical function and cell viability. Comparisons can then be made to quantitative markers in the concentration response curves constructed with the toxicity data.
It is hypothesized to act through mitochondrial toxicity as well as apoptosis.

[3] = Cell number (propidium iodide); assay type: cell-based, rat; conditions: rat, Cell Number TC50
Description: as §1
(§3) Experimental Protocol: The test compound was provided and stored at 4° C. until needed. Dosing solutions were prepared in complete culture medium. The rat hepatoma (H4IIE) cell line was used as the test system.
Cell Proliferation: Cell proliferation in each well was measured with propidium iodide (PI). This specific nucleic acid binding dye fluoresces when intercalated within the nucleic acids. The 15 nm shift enhances PI fluorescence approximately 20 times while the excitation maxima are shifted 30-40 nm. During method development experiments, it was determined that Triton-X-100 was the best solution to permeabilize the H4IIE cells thereby allowing the PI access to intracellular RNA and DNA. Fluorescence was measured using a Packard Fusion plate reader or equivalent reader at 540 nm excitation and 610 nm emission.
Cell Proliferation: After incubation, the test compound was removed and Triton X-100 solution containing propidium iodide is added. The plate was incubated and read on a fluorescent plate reader. Data was collected as relative fluorescent units (RFU). The blank was subtracted from the final well RFU. It represents the average of the first and last columns which contain no cells on that particular plate. The controls are untreated cells allowed to grow on the same plate. The compounds are represented by several separate RFU data points for each of the tested concentrations. The percent change relative to controls was calculated by dividing the average RFU by the control cell RFU and multiplying by 100.

[4] = Intracellular total glutathione (GSH); assay type: cell-based, rat; conditions: rat, Total GSH TC50
Description: as §1, §3

MTT reduction [5] = assay type: cell-based, rat; conditions: rat, MTT TC50
Description: as §1, §3, §2

[6] = MemTox membrane leakage (AK / α-GST); assay type: cell-based, rat; conditions: rat
Description: as §1
(§4) Membrane Leakage (α-Glutathione S-transferase and/or Adenylate Kinase): The presence of Adenylate Kinase (AK) or α-Glutathione S-transferase (α-GST), both enzyme leakage markers, was measured in the culture medium using an activity assay for Adenylate Kinase and/or an ELISA assay for α-GST. At the end of the exposure period, the medium covering the cells in each well was removed and placed into new 96-well plates with appropriate labeling. […] Luminescence (AK) values were measured with a Packard Fusion or equivalent plate reader, and absorbance (α-GST) values were measured with a Packard SpectraCount™ or equivalent reader at 450 nm and reference absorbance at 650 nm.
(§5) Membrane Leakage (α-Glutathione S-transferase and/or Adenylate Kinase): Leakage of Adenylate Kinase or α-GST from the cell into the culture medium was determined by collecting the culture medium at the end of the exposure period. Thus, the values measured represent total enzyme leakage lost over the exposure period. The control for 100% dead or maximum enzyme release was based on cells treated with 1 mM digitonin at the time of dosing. Percent dead cells relative to digitonin treated cells was determined and then subtracted from 100% to yield the percent live cells.

[7] = Intracellular total glutathione (GSH); assay type: cell-based, rat; conditions: rat
Description: as §1

H4IIE cells [8] = experiment: Predicted Ctox from Tox-Panel; assay type: cell-based, rat; conditions: 24 HR, estimated sustained plasma concentration where toxicity would be expected in vivo
Description: Once all data for a given cluster of assays are received, the data are analyzed to obtain a detailed profile of the compound's toxicity. For example, most conveniently, the data are collated over a dose response range on a single graph. In such an embodiment, the measurement evaluated for each parameter (i.e., each indicator of cell health) at any given concentration is plotted as a percentage of a control measurement obtained in the absence of the compound. However, it should be noted that the data need not be plotted on a single graph, so long as all the parameters are analyzed collectively to yield detailed information of the effects of the concentration of the compound on the different parameters to yield an overall toxicity profile. As set forth below, this overall toxicity profile will facilitate a determination of a plasma concentration Ctox that is predicted to be toxic in vivo. Ctox represents an estimate of the sustained plasma concentration in vivo that would result in toxicity, such as hepatotoxicity or hematopoietic toxicity.
Studies such as these indicate that a preferred concentration for setting Ctox is the highest concentration at which there is no observed effect on any of the indicators being measured in the cluster analysis, especially a 24-hour cluster analysis. […] It will be apparent that 24 hour assays are more time-effective, and consequently, the 24 hour NOEL/Ctox represents a preferred data point to select as Ctox in a CATS assay. It will also be apparent that, with further time studies, it may be possible to select an equally suitable Ctox at other CATS assay time points (e.g., between 24 and 72 hours, or less than 24 hours).
In certain embodiments, the predicting comprises performing concentration response analyses of measurements from at least three separate assays that are employed in the cluster analysis. For example, in the cell health cluster, such predicting will involve monitoring the concentration response effect of the compound on a first health indicator which monitors cellular replication, a second cell health indicator which monitors mitochondrial function, and a third cell health indicator which monitors membrane integrity. Of course, it is understood that fourth, fifth, sixth or more cell health indicators also may be employed. From these concentration response analyses, the highest concentration of the chemical compound at which a measurable toxic effect of the chemical compound is not observable, i.e. NOEL, is determined and the Ctox is identified as the concentration that correlates to the NOEL. In choosing the concentrations of the compound for analysis, one of skill in the art should devise a dose response regimen which is selected to provide an indication of cell health at concentrations of at least two concentration values higher than the Ctox concentration.
The Ctox (H4IIE) value was developed using 24 hr in vitro toxicity data and was validated by retrospectively evaluating compounds across different classes of drugs in 14-day rat studies in which compounds were administered on a daily basis and pharmacokinetic data was available. […] Thus, Ctox values are only determined for the 24 hr in vitro results. The 6 hr toxicity analyses are typically not performed but are beneficial for interpretation of results when compound toxicity is high (e.g., Ctox≦20 μM).

MTT reduction [9] = assay type: cell-based, rat; conditions: rat
Description: as §1, §2

Intracellular ATP levels [10] = assay type: cell-based, rat; conditions: rat, ATP TC50
Description: as §1, §3
(§6) Intracellular ATP Levels: Cellular Adenosine triphosphate (ATP) was determined with an assay based on a reaction between ATP+D-luciferin+oxygen catalyzed by luciferase to yield Oxyluciferin+AMP+PPi+CO2+light. The emitted light is proportional to the amount of ATP present. […] In addition, a unique cell lysis reagent inhibits endogenous ATPases and therefore stabilizes cellular ATP by preventing its degradation to ADP. ATP is present in all-living cells and declines rapidly upon cell death. In addition, this assay in combination with the MTT assay provides an indicator of mitochondrial activity and energy status of the cell.
(§7) Plates were analyzed immediately or stored at −20° C. until needed. On the day of analysis, the plates were thawed and calibration curve prepared with ATP in the same liquid matrix as samples. ATP was quantified by adding ATP substrate solution and then reading luminescence on a Packard Fusion Luminescence or equivalent plate reader.
(§8) Intracellular ATP Levels: ATP levels in treated cells could be determined by using the regression coefficients obtained from the linear regression analysis of the calibration curve. Thus, values could be expressed as pmoles ATP/million cells. Background corrected luminescence was used to determine percent change relative to controls by dividing treated values by control values and multiplying by 100.

Intracellular ATP levels [11] = assay type: cell-based, rat; conditions: rat
Description: as §1, §6, §7, §8

[12] = MemTox membrane leakage (AK / α-GST); assay type: cell-based, rat; conditions: rat, MemTox TC50
Description: as §1, §3, §4, §5

P-glycoprotein (PgP) = P-glycoprotein (PgP) binding: MTT with and without cyclosporin A; assay type: cell-based, rat; conditions: H4IIE 24 HR; for % Control (Compound + CSA) / % Control (Compound): MTT, 50 μM; for % Control (Compound + CSA): with cyclosporin A; for % Control (Compound): without CSA; for % Difference: 1-20% low, 20-50% moderate, 50-100% high PgP interaction
Description: Several antiviral drugs are substrates for P-glycoprotein transporter (PgP).
P-glycoprotein (PgP) transport proteins are expressed in the bile canalicular membrane of normal liver. However, in neoplastic cells it is not uncommon to have expression of this transporter system in the plasma membrane. […] The existence of these transporters was evaluated with the Calcein-AM assay and with known substrates of PgP.

H4IIE cells [13] = experiment: Membrane lipid peroxidation (8-isoprostane ELISA); assay type: cell-based, rat; conditions: rat, 24 h
Description: (§9) One test compound (Compound A) was received as dry powder and evaluated for potential cytotoxicity in a battery of in vitro assays. The compound was tested using both rat cardiomyocytes (CM) from rat neonates and a rat hepatoma (H4IIE) cell line. […] Camptothecin and rotenone were included as positive control compounds. The cell supernatant or the cells themselves were harvested for biochemical analysis. General cytotoxicity was evaluated by monitoring membrane integrity, mitochondrial function, cell proliferation, oxidative stress, and apoptosis. In addition, interaction with P-glycoprotein (PgP) on H4IIE cells and solubility of the test compound were also assessed. The means of each exposure group (n=3-7) were calculated for each assay performed. Intra assay variation well-to-well was typically less than 10% with plate to plate variation typically less than 20%.
as §3

rat cardiomyocytes [14] = experiment: Membrane lipid peroxidation (8-isoprostane ELISA); assay type: cell-based; conditions: rat, 24 h
Description: as §9

ANP = experiment: bDNA analysis of mRNA in rat cardiomyocytes; assay type: cell-based; conditions: rat cardiomyocytes
Text: (§10) Hypertrophy of the heart ventricular myocytes is regulated by a complex series of intracellular signaling processes involving angiotensin receptors and a series of down stream gene expression changes (Li et al. 2006). Endothelin-1 (ET-1) induces hypertrophy of cardiomyocytes in vivo and in vitro. The mechanism of ET-1-induced hypertrophy consists in the activation of phospholipase C, protein kinase C, extra cellular signal regulated kinase (ERK) and upregulation of cfos and cjun.
(§11) Expression of ANP and BNP mRNA levels was determined by bDNA analysis of mRNA. ET-1 at 0.1 μM was included as a positive control.
(§12) […] Plates were mixed using a DPC 5 Micromix plate shaker at 37° C. for 15-30 minutes to ensure complete lysis of cells. Cell lysis was confirmed using a Nikon inverted microscope. Plates were stored at −80° C. until further analysis.
(§13) bDNA Analysis (Day 1): All solutions were prepared fresh on the day of analysis. Quantigene® bDNA kit components were brought to room temperature prior to use. Chemicals not supplied by Genospectra were obtained from Sigma-Aldrich.
(§14) On the day of analysis, Target Probe Sets were prepared for probe gene sets by adding 25 μL of each probe set component (CE, LE, BL) to 425 μL stock lysis solution using the following probe set concentrations: CE (50 fmol/μL), LE (200 fmol/μL), BL (100 fmol/μL).
(§15) Cell lysis plates were removed from freezer storage and thawed. […] Next, 10 μL of the appropriate Target Probe Set (PS2) was added to each appropriate well of the Capture Plate. Plates were tightly sealed using a plate sealer and incubated at 53° C. for 16-20 hr (overnight).
(§16) bDNA Analysis (Day 2): Wash buffer was prepared in ultra-pure water using 0.1×Saline-Sodium Citrate (SSC) and 0.03% Lithium Lauryl Sulfate (LLS). Amplifier working solution was prepared by adding 10 μL Amplifier to 10 mL Amplifier Diluent per plate.
(§17) Plates were removed from incubator and washed three times with 300 μL wash buffer. Wash buffer was completely removed from plates by aspiration and 100 μL Amplifier working solution was added to each well. Plates were sealed and incubated at 46° C. for 1 hr.
(§18) Label Probe working solution was prepared by adding 10 μL Label Probe to 10 mL Label Probe Diluent per plate. […] Plates were sealed and incubated at 46° C. for 1 hr.

BNP = experiment: bDNA analysis of mRNA in rat cardiomyocytes; assay type: cell-based; conditions: rat cardiomyocytes, 0.1 μM, after 3 hr
Text: as §10, §11, §12, §13, §14, §15, §16, §17, §18

**Q.** Which “potency in heart cells relative to H4IIE liver cells” value (rat cardiomyocytes [1]) does the source give for `Cc1ccc(NC(=O)c2ccc(CN3CCN(C)CC3)cc2)cc1Nc1nccc(-c2cccnc2)n1` [Imatinib] here?
**A.** three to four-fold more potent

**Q.** With `CN(Cc1cnc2nc(N)nc(N)c2n1)c1ccc(C(=O)N[C@@H](CCC(=O)O)C(=O)O)cc1` [Methotrexate] as the molecule, how does the “sensitivity of cell types in the anti-tumor screen” value [2] read?
**A.** the tumor cell line is most sensitive to mitochondrial damage

**Q.** Which results are given for `Cc1ccnc2c1NC(=O)c1cccnc1N2C1CC1` [NEVIRAPINE, nevirapine]?
**A.** CC50 at 24 h [3]: > 300 µM; CC50 at 24 h [4]: > 300 µM; CC50 at 24 h (MTT reduction [5]): > 300 µM; CC50 at 24 h [6]: > 300 µM; CC50 at 24 h [7]: 251 µM; Predicted Ctox (H4IIE cells [8]): 100 µM; CC50 at 24 h (MTT reduction [9]): > 300 µM; CC50 at 24 h (Intracellular ATP levels [10]): > 300 µM; CC50 at 24 h (Intracellular ATP levels [11]): > 300 µM; CC50 at 24 h [12]: > 300 µM; % Control (Compound + CSA) (P-glycoprotein (PgP)): 90.2%; % Control (Compound) (P-glycoprotein (PgP)): 115.5%; % Difference (P-glycoprotein (PgP)): 21.9%

**Q.** For `CC(C)c1nc(CN(C)C(=O)N[C@H](C(=O)N[C@@H](Cc2ccccc2)C[C@H](O)[C@H](Cc2ccccc2)NC(=O)OCc2cncs2)C(C)C)cs1` [RITONAVIR, ritonavir], which “Predicted Ctox” value (H4IIE cells [8]) is on record?
**A.** 52 µM

**Q.** And the “Membrane Lipid Peroxidation” value (H4IIE cells [13])?
**A.** 0

**Q.** What about the “Membrane Lipid Peroxidation” value (rat cardiomyocytes [14]) of the same molecule?
**A.** 0

**Q.** And the “% Control (Compound + CSA)” value (P-glycoprotein (PgP))?
**A.** 81.5%

**Q.** What about the “% Control (Compound)” value (P-glycoprotein (PgP)) of the same molecule?
**A.** 100.6%

**Q.** What about the “% Difference” value (P-glycoprotein (PgP)) of the same molecule?
**A.** 19.0%

**Q.** For `CS(=O)(=O)c1ccc(C2=C(c3ccccc3)C(=O)OC2)cc1` [Vioxx], which “induction of the hypertrophy marker ANP, Vioxx versus Celebrex” value (ANP; normalized with GAPDH) is on record?
**A.** more effective at inducing the hypertrophy marker ANP

**Q.** What does the source list for “Endothelin-1 (CSCSSLMDKECVYFCHLDIIW; ends and bridges not checked; cysteine pairing not given here; UniProt P05305 53-73, looked up) [ET-1, positive control inducing cardiomyocyte hypertrophy]”?
**A.** BNP expression increase (BNP): approximately 4.5 fold; ANP expression increase (ANP; 0.1 μM, after 3 hr): approximately 2 fold
